Assay: DPPH radical scavenging activity assay
Type: biochemical
Conditions: for DPPH Clearance rate: 30 min dark, room temperature, 517 nm, n = 3
Description: 2,2-Diphenyl-1-picryl hydrazyl (DPPH) is an organic compound composed of a stable organic radical. In the DPPH molecule, due to the presence of multiple electron-withdrawing —NO2 and large π bonds of the benzene ring, nitrogen free radical is stabilized. Its methanol solution is purple and has a maximum absorption peak at 517 nm. After the addition of an antioxidant, DPPH captures an electron to be paired with the free electron, and the purple fades and turns into a yellow substance. The absorption at 517 nm disappears, and the degree of fading is quantitatively related to the number of electrons it captures. Based on this principle, a spectrophotometer is used to detect the change of the absorbance of the DPPH radical and the sample solution, and the ability of the sample to provide hydrogen atoms and scavenge free radicals can be measured.
(a) Preparation of DPPH solution: measuring exact amount of 2,2-diphenyl-1-picryl hydrazyl (DPPH) and dissolving in toluene to prepare a 0.2 mmoL/L DPPH solution, stored at 0° C. in dark.
(b) Preparation of test solution: Vc (vitamin C, positive control), hydroxytyrosol dihydrocaffeate (sample), hydroxytyrosol (control) and dihydrocaffeic acid (control). The sample solution was subjected to gradient dilution with toluene, and three sets of controls were separately dissolved in a test tube with a certain amount of toluene to prepare the same concentration gradient as the sample.
Sample liquid absorbance measurement: Taking 2 mL of test solution (Table 1: Vc, A, B, C), adding 2 mL of DPPH solution with concentration of […], mixing and reacting in the dark at room temperature for 30 min, adjusting to zero with toluene, and measuring at 517 nm. The absorbance A, was simultaneously measured for the absorbance of 2 mL of toluene mixed with 2 mL of the solution and the absorbance A0 of 2 mL of DPPH solution mixed with 2 mL of toluene (The experimental results are shown in Table 2).
Clearance rate (%)=[1−(Ai−Aj)/A0]*100% Clearance calculation: […]

Row | SMILES | antioxidant activity (in words) | DPPH Clearance rate (1.76 ppm in toluene) | DPPH Clearance rate (8.80 ppm in toluene) | DPPH Clearance rate (21.12 ppm in toluene) | DPPH Clearance rate (42.24 ppm in toluene) | DPPH Clearance rate (79.20 ppm in toluene) | DPPH Clearance rate (112.64 ppm in toluene) | DPPH Clearance rate (281.60 ppm in toluene) | DPPH Clearance rate (492.80 ppm in toluene) | DPPH Clearance rate (792.00 ppm in toluene) | DPPH Clearance rate (915.20 ppm in toluene) | scavenging ability to DPPH radical compared with controls (compared with hydroxytyrosol (B) and dihydrocaffeic acid (C) alone) | highest scavenging rate of DPPH radical (in the determined concentration range (1.76-915.20 ppm))
1 | O=C(CCc1ccc(O)c(O)c1)OCCc1ccc(O)c(O)c1 [A, 3,4-dihydroxyphenethyl 3-(3,4-dihydroxyphenyl)propanoate] | excellent antioxidant activity | 13.45% | 17.80% | 34.16% | 42.74% | 70.42% | 80.63% | 82.35% | 85.70% | 89.10% | 91.22% | much higher than those of hydroxytyrosol (B) control group and dihydrocaffeic acid (C) control groups | 91.22%
2 | O=C1O[C@H]([C@@H](O)CO)C(O)=C1O [Vc, Vitamin C] |  | 23.16% | 33.47% | 79.63% | 89.55% | 97.42% | 97.53% | 98.29% | 99.06% | 99.10% | 99.28% |  | 
3 | O=C(O)CCc1ccc(O)c(O)c1 [C, Dihydrocaffeic acid] |  | 6.27% | 7.46% | 13.42% | 19.21% | 32.36% | 37.87% | 53.23% | 59.82% | 69.01% | 70.28% |  | 

— US10640450B1, “Hydroxytyrosol dihydrocaffeate having antioxidant activity and a method for preparing the same” (SHAANXI UNIVERSITY OF SCIENCE AND TECHNOLOGY, priority 2019, dated 2020)
